Assay results from patent US20260217701A1, “SELECTIVE BET INHIBITORS AND USES THEREOF” (Tay Therapeutics Limited, priority 2022, published 2026).
Where “and” joins values, the source holds several entries; their conditions need not be identical. Equal values may be shown once.

Experiments:
BRD4 BD2 = target: T1, BRD4 BD2 (Homo sapiens, UniProt O60885); assay: NanoBRET bromodomain assay, NanoLuc-BRD4-BD2 in HEK293 cells; format: binding; conditions: nanoBRET assay, given as symbol only
T1 construct: HEK293 cells were transfected using NanoLuc-BRD4-BD1 or NanoLuc-BRD4-BD2 fusion vectors
Method: Plates were then incubated at 37° C.+5% CO2 incubator for 2 hours.
Fold Selectivity Calculated (IC50 BD1/IC50 BD2).

[1] = tested on: imiquimod-induced psoriasis; assay: Imiquimod-induced psoriasis model; format: in vivo, mice; design: Spleen Weight / Spleen Weight Ratio: unit not given here; conditions: for PASI Scores: IMI + Deucravacitinib 3 mg/kg; for Mean scores of the presence of erythema on the skin of animals at the area of induction of psoriasis / Mean scores of the presence of induration on the skin of animals at the area of induction of psoriasis / Mean scores of the presence of peeling on the skin of animals at the area of induction of psoriasis: mean ± SEM
Excerpt: Imiquimod-induced psoriasis is a model of psoriasis in mice that induces psoriasis-like dermatitis. The pathology closes resembles human plaque-type psoriasis and is a valuable tool for testing new therapies against psoriasis. […] Compound A was formulated in a 5% DMSO/40% PEG-400/55% (0.9% NaCl w/v water) solution (Table 2F). Experimental groups for the study are outlined in Table 4. Prior to study initiation, the backs of all animals in the study were depilated to allow for induction of psoriasis and monitoring of disease progression.
Once assigned to experimental groups, on Day 1 and continuing through Day 14, topical imiquimod (IMI; Aldara™ containing 5% Imiquimod) was administered to the dorsal depilated animals, and animals in group 1 received topical administration of Excipial® hydrocream (65 mg). […] Clobetasol was applied topically for animals in group 11.
Body weights were recorded three times a week from Day 1 to Day 8, and daily from Day 8 until the study end at Day 15. At termination on D15 the spleen weight ratio was determined. Disease severity was assessed using the psoriasis area severity index (PASI) daily from Day 8 until study completion on Day 15. The PASI score was calculated based on three parameters (presence of erythema, induration of the skin, and peeling of the skin at the area of induction) on a scale of 0 to 4 (0=no more or absence, 1=low, 2=moderate, 3=high, 4=severe). The PASI score for each animal was calculated as the sum of the score of each parameter measured. The score of the use of enrichment (SUE) was also assessed daily from Day 8 to Day 15. At study completion on Day 15, animal behavior was evaluated using an open field to assess distance travelled, number scratching, and licking and rearing performed in 10 minutes. Upon study termination animals were sacrificed, the spleen was excised and weighed, and blood samples were collected. Serum was isolated from the blood sample for cytokine and other biomarker analysis. IL-1B, IL-6, IL-17, and TNF-α assayed using simple plex technique on an ELLA automated immunoassay system. IL-22 and IL-23 were assayed by ELISA.
The imiquimod-induced model of psoriasis was used to assess the efficacy of Compound A in treating psoriasis. […] Treatment started on Day 8 after induction so reference to day 1 of treatment is to Day 8 and day 7 of treatment is to Day 14.

[2] = IMI-psoriasis model, behavioral evaluation D15, 3 mg/kg, individual animals
[3] = IMI-psoriasis model, behavioral evaluation, 3 mg/kg, individual animals
[4] = IMI-psoriasis model, mice, 3 mg/kg, individual animals
[5] = IMI + 3 mg/kg, D8 (before start of treatment)

Cn1cc(-c2ccccc2)c(-c2cn(C)c(=O)c3[nH]c(-c4cnn(C(F)(F)F)c4)c(F)c23)cc1=O [Compound D, 3-fluoro-6-methyl-4-(1-methyl-2-oxo-5-phenyl-1,2-dihydropyridin-4-yl)-2-(1-(trifluoromethyl)-1H-pyrazol-4-yl)-1,6-dihydro-7H-pyrrolo[2,3-c]pyridin-7-one]
Selectivity (BD1/BD2) (BRD4 BD2; higher number denotes higher selectivity): >>>> | BD2 (BRD4 BD2; lower number denotes higher potency): <

Deucravacitinib [reference compound]
symptoms by day 15 (representative images) ([1]; 3 mg/kg): nearly entirely symptom free | PASI-90 (change in PASI score ≥90%) by day 7 of treatment ([1]; 3 mg/kg IP once daily): surpassed PASI-90 | Body Weight D1 ([1]; IMI + 3 mg/kg, Day 1 (before treatment start on Day 8), individual animals, 3 mg/kg, in g (unit assumed)): 18.26 and 17.37 and 16.82 and 17.07 and 16.32 and 18.04 and 16.47 and 17.58 | Body Weight D3 ([1]; IMI + 3 mg/kg, Day 3 (before treatment start on Day 8), individual animals, 3 mg/kg, in g (unit assumed)): 16.20 and 16.31 and 14.76 and 15.24 and 15.52 and 15.99 and 14.97 and 15.55 | Body Weight D5 ([1]; IMI + 3 mg/kg, Day 5 (before treatment start on Day 8), individual animals, 3 mg/kg, in g (unit assumed)): 18.16 and 16.94 and 15.74 and 15.23 and 15.99 and 17.09 and 14.94 and 16.50 | Body Weight D7 ([1]; IMI + 3 mg/kg, Day 7 (before treatment start on Day 8), individual animals, 3 mg/kg, in g (unit assumed)): 17.33 and 17.08 and 15.79 and 15.48 and 16.18 and 17.55 and 15.22 and 16.65 | Body Weight D8 ([1]; IMI + 3 mg/kg, Day 8 (first day of treatment), individual animals, 3 mg/kg, in g (unit assumed)): 17.09 and 17.16 and 15.63 and 15.50 and 15.52 and 17.05 and 14.52 and 15.81 | Body Weight D9 ([1]; IMI + 3 mg/kg, Day 9, individual animals, 3 mg/kg, in g (unit assumed)): 16.60 and 16.54 and 15.63 and 15.57 and 16.01 and 16.79 and 14.75 and 13.93 | Body Weight D10 ([1]; IMI + 3 mg/kg, Day 10, individual animals, 3 mg/kg, in g (unit assumed)): 16.71 and 16.43 and 16.08 and 15.84 and 14.94 and 16.16 and 14.20 | Body Weight D11 ([1]; IMI + 3 mg/kg, Day 11, individual animals, 3 mg/kg, in g (unit assumed)): 17.38 and 15.87 and 15.51 and 15.55 and 16.43 and 14.72 | Body Weight D12 ([1]; IMI + 3 mg/kg, Day 12, individual animals, 3 mg/kg, in g (unit assumed)): 17.70 and 15.90 and 15.59 and 15.82 and 17.15 and 15.06 | Body Weight D13 ([1]; IMI + 3 mg/kg, Day 13, individual animals, 3 mg/kg, in g (unit assumed)): 17.75 and 16.24 and 15.77 and 15.95 and 16.97 and 14.52 | Body Weight D14 ([1]; IMI + 3 mg/kg, Day 14, individual animals, 3 mg/kg, in g (unit assumed)): 18.00 and 16.31 and 15.59 and 16.06 and 17.07 and 15.08 | Body Weight D15 ([1]; IMI + 3 mg/kg, Day 15, individual animals, 3 mg/kg, in g (unit assumed)): 18.03 and 16.39 and 16.00 and 16.29 and 17.17 and 15.22 | MBWC D1-D8 ([1]; IMI + 3 mg/kg, body weight change Day 1 to Day 8 (before treatment), individual animals, 3 mg/kg): −1.17 and −0.21 and −1.19 and −1.57 and −0.80 and −0.99 and −1.95 and −1.77 | MBWC D8-D15 ([1]; IMI + 3 mg/kg, body weight change Day 8 to Day 15 (treatment period), individual animals, 3 mg/kg): 0.94 and 0.76 and 0.50 and 0.77 and 0.12 and 0.70 | PASI Scores ([1]; D8 (day treatment started), individual animals): 6 (3×) and 7 and 10 and 8 (3×) | PASI Scores ([1]; D9, individual animals): 7 (3×) and 6 (4×) and 8 | PASI Scores ([1]; D10, individual animals): 6 (6×) and 7 | PASI Scores ([1]; D11, individual animals): 6 (3×) and 5 (2×) and 4 | PASI Scores ([1]; D12, individual animals): 4 (2×) and 3 (4×) | PASI Scores ([1]; D13, individual animals): 2 (3×) and 0 (2×) and 4 | PASI Scores ([1]; D14, individual animals): 1 (4×) and 0 and 2 | PASI Scores ([1]; D15, individual animals): 1 (2×) and 0 (4×) | Use Enrichment D1 ([1]; IMI-psoriasis model, D1, 3 mg/kg, per cage (two animals)): 4.0 | Use Enrichment D10 ([1]; IMI-psoriasis model, D10, 3 mg/kg, per cage (two animals)): 0.0 | Use Enrichment D14 ([1]; IMI-psoriasis model, D14, 3 mg/kg, per cage (two animals)): 3.0 and 3.5 and 2.0 | Use Enrichment D15 ([1]; IMI-psoriasis model, D15, 3 mg/kg, per cage (two animals)): 4.0 and 2.0 | Number Licking [1, 2]: 1 and 2 (2×) and 7 and 8 | Number Licking + Scratching [1, 2]: 2 (3×) and 10 and 20 | Number Scratching [1, 2]: 1 and 0 (2×) and 3 and 12 | Distance Traveled [1, 3]: 14 m (2×) and 9 m and 19 m and 12 m | Number Rearings [1, 3]: 31 and 22 and 58 and 68 and 38 | Use Enrichment Mean D1-D8 ([1]; IMI-psoriasis model, mean D1-D8, 3 mg/kg, per cage (two animals)): 2.50 and 2.00 | Spleen Weight [1, 4]: 195.00 and 187.27 and 171.30 and 177.57 and 171.11 and 127.21 | Spleen Weight Ratio [1, 4]: 1081.53 and 1142.59 and 1070.63 and 1090.06 and 996.56 and 835.81 | Mean scores of the presence of erythema on the skin of animals at the area of induction of psoriasis [1, 5]: 2.1 ± 0.1 | Mean scores of the presence of induration on the skin of animals at the area of induction of psoriasis [1, 5]: 2.8 ± 0.3 | Mean scores of the presence of peeling on the skin of animals at the area of induction of psoriasis [1, 5]: 2.5 ± 0.2 | Mean scores of the presence of erythema on the skin of animals at the area of induction of psoriasis ([1]; IMI + 3 mg/kg, D9): 2.1 ± 0.1 | Mean scores of the presence of induration on the skin of animals at the area of induction of psoriasis ([1]; IMI + 3 mg/kg, D9): 2.4 ± 0.2 | Mean scores of the presence of peeling on the skin of animals at the area of induction of psoriasis ([1]; IMI + 3 mg/kg, D9): 2.1 ± 0.1 | Mean scores of the presence of erythema on the skin of animals at the area of induction of psoriasis ([1]; IMI + 3 mg/kg, D10): 2.3 ± 0.2 | Mean scores of the presence of induration on the skin of animals at the area of induction of psoriasis ([1]; IMI + 3 mg/kg, D10): 2.0 ± 0.2 | Mean scores of the presence of peeling on the skin of animals at the area of induction of psoriasis ([1]; IMI + 3 mg/kg, D10): 1.9 ± 0.1 | Mean scores of the presence of erythema on the skin of animals at the area of induction of psoriasis ([1]; IMI + 3 mg/kg, D11): 1.8 ± 0.4 | Mean scores of the presence of induration on the skin of animals at the area of induction of psoriasis ([1]; IMI + 3 mg/kg, D11): 1.5 ± 0.2 | Mean scores of the presence of peeling on the skin of animals at the area of induction of psoriasis ([1]; IMI + 3 mg/kg, D11): 2.0 ± 0.3 | Mean scores of the presence of erythema on the skin of animals at the area of induction of psoriasis ([1]; IMI + 3 mg/kg, D12): 1.8 ± 0.2 | Mean scores of the presence of induration on the skin of animals at the area of induction of psoriasis ([1]; IMI + 3 mg/kg, D12): 0.5 ± 0.2 | Mean scores of the presence of peeling on the skin of animals at the area of induction of psoriasis ([1]; IMI + 3 mg/kg, D12): 1.0 ± 0.0 | Mean scores of the presence of erythema on the skin of animals at the area of induction of psoriasis ([1]; IMI + 3 mg/kg, D13): 0.8 ± 0.3 | Mean scores of the presence of induration on the skin of animals at the area of induction of psoriasis ([1]; IMI + 3 mg/kg, D13): 0.0 ± 0.0 | Mean scores of the presence of peeling on the skin of animals at the area of induction of psoriasis ([1]; IMI + 3 mg/kg, D13): 0.8 ± 0.3 | Mean scores of the presence of erythema on the skin of animals at the area of induction of psoriasis ([1]; IMI + 3 mg/kg, D14): 0.2 ± 0.2 | Mean scores of the presence of induration on the skin of animals at the area of induction of psoriasis ([1]; IMI + 3 mg/kg, D14): 0.0 ± 0.0 | Mean scores of the presence of peeling on the skin of animals at the area of induction of psoriasis ([1]; IMI + 3 mg/kg, D14): 0.8 ± 0.2 | Mean scores of the presence of erythema on the skin of animals at the area of induction of psoriasis ([1]; IMI + 3 mg/kg, D15): 0.0 ± 0.0 | Mean scores of the presence of induration on the skin of animals at the area of induction of psoriasis ([1]; IMI + 3 mg/kg, D15): 0.0 ± 0.0 | Mean scores of the presence of peeling on the skin of animals at the area of induction of psoriasis ([1]; IMI + 3 mg/kg, D15): 0.3 ± 0.2 | Mean PASI Scores in IMI-Psoriasis Model ([1]; mice, IMI + 3 mg/kg, D8 (before start of treatment)): 7.4 ± 0.5 | Mean PASI Scores in IMI-Psoriasis Model ([1]; mice, IMI + 3 mg/kg, D9): 6.6 ± 0.3 | Mean PASI Scores in IMI-Psoriasis Model ([1]; mice, IMI + 3 mg/kg, D10): 6.1 ± 0.1 | Mean PASI Scores in IMI-Psoriasis Model ([1]; mice, IMI + 3 mg/kg, D11): 5.3 ± 0.3 | Mean PASI Scores in IMI-Psoriasis Model ([1]; mice, IMI + 3 mg/kg, D12): 3.3 ± 0.2 | Mean PASI Scores in IMI-Psoriasis Model ([1]; mice, IMI + 3 mg/kg, D13): 1.7 ± 0.6 | Mean PASI Scores in IMI-Psoriasis Model ([1]; mice, IMI + 3 mg/kg, D14): 1.0 ± 0.3 | Mean PASI Scores in IMI-Psoriasis Model ([1]; mice, IMI + 3 mg/kg, D15): 0.3 ± 0.2 | use of enrichment (nesting) ([1]; relative to vehicle-treated psoriasis animals): about half that seen with Compound A
